Like-named read-outs stand apart in the source and are kept apart here.
How the values were obtained:
[1] = molecular target: T1, HiBit-BRM fusion protein (Homo sapiens, UniProt P51531); test: HiBiT-BRM cell-based degradation assay (Nano-Glo HiBiT lytic detection, 24 h); settings: HeLa cell line expressing HiBiT-BRM; for DC50: read-out: BRM HiBit Degradation IC50
T1 construct: expressed in transfected cells
Description: (§1) Procedure: A stable HeLa cell line expressing HiBiT-BRM was generated. On day 0, 5000 cells were seeded in 40 μL of media into each well of 384-well cell culture plates. On day 1, cells were treated with 120 nL DMSO or 120 nL of 3-fold serially DMSO-diluted compounds (10 points in duplicate with 30 μM as final top dose). Subsequently plates were incubated for 24 h in a standard tissue culture incubator and equilibrated at room temperature for 15 minutes. Nano-GB HiBiT Lytic Detection System (Promega N3050) reagent was freshly prepared and 20 ul was added to each well. Upon addition of this LgBit-containing reagent, the HiBiT and LgBiT proteins associate to form the luminescent NanoBiT luciferase. The plates were shaken for 10 minutes at room temperature and the bioluminescence read using an EnVision plate reader (PerkinElmer).
(§2) The degradation % was calculated using the following formula: % degradation=100%−100%×(Lumsample−LuMLC)/(LuMHC−LuMLC). DMSO treated cells are employed as High Control (HC) and 2 μM of a known BRM/BRG1 degrader standard treated cells are employed as Low Control (LC).

[2] = molecular target: T2, HiBit-BRG1 fusion protein (Homo sapiens, UniProt P51532); test: HiBiT-BRG1 cell-based degradation assay (Nano-Glo HiBiT lytic detection, 24 h); settings: for Dmax: read-out: BRG1 HiBit Degradation Maximum (%); for DC50: read-out: BRMG1 HiBit Degradation IC50
T2 construct: expressed in transfected cells
Description: as §1, with “On day 1, cells were treated with 120 nL DMSO or 120 nL of 3-fold serially DMSO-diluted compounds (10 points in duplicate with 30 μM as final top dose).” left out
For measurement of BRG1 degradation, a stable HeLa cell line expressing HiBit-BRG1 and LgBit was generated. The same protocol as above was then followed.
as §2

[3] = HeLa cell line expressing HiBit-BRG1 and LgBit

T2 sequence (P51532 whole entry, the tested form may be a part): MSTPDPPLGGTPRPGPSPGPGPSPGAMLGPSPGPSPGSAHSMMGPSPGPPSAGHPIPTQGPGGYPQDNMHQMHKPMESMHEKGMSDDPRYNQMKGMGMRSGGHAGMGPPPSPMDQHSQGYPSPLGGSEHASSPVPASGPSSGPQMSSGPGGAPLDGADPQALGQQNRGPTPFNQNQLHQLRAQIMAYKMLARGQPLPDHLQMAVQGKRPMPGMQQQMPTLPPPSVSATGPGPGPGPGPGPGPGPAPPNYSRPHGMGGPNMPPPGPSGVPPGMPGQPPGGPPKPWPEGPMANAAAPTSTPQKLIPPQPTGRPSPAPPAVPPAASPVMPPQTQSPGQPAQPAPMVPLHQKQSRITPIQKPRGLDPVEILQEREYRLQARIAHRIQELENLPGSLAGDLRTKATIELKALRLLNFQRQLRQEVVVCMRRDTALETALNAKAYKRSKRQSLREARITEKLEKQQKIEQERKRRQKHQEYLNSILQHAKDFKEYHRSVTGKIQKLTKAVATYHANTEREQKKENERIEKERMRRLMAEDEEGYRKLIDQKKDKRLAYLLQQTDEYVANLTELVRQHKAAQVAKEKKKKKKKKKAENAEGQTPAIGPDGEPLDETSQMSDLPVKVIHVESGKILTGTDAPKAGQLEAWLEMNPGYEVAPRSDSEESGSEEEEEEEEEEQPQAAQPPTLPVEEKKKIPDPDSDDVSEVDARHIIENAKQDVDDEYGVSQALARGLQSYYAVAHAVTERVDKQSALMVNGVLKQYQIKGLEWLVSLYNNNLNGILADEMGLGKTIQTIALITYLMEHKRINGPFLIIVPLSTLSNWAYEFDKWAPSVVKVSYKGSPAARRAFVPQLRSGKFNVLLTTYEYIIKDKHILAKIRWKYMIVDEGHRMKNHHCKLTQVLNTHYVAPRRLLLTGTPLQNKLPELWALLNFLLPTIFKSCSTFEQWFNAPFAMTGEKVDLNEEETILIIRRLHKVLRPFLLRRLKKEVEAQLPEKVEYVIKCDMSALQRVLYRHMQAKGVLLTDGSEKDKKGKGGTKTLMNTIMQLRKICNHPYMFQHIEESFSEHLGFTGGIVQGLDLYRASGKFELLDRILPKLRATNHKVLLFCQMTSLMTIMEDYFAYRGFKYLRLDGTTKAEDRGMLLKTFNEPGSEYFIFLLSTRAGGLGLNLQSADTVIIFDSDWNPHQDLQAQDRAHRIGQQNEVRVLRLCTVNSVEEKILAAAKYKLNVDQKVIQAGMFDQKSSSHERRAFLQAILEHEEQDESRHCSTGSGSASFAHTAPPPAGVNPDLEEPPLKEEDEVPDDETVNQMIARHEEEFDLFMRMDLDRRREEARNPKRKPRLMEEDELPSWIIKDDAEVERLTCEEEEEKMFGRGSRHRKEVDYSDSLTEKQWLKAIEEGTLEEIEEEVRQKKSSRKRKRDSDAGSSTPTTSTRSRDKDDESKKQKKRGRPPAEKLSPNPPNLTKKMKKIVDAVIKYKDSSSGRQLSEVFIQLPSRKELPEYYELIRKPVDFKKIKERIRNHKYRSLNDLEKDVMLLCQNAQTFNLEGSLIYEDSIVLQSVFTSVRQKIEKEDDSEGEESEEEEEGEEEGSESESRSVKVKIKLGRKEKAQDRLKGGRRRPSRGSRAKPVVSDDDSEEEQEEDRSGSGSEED
T1 sequence (P51531 whole entry, the tested form may be a part): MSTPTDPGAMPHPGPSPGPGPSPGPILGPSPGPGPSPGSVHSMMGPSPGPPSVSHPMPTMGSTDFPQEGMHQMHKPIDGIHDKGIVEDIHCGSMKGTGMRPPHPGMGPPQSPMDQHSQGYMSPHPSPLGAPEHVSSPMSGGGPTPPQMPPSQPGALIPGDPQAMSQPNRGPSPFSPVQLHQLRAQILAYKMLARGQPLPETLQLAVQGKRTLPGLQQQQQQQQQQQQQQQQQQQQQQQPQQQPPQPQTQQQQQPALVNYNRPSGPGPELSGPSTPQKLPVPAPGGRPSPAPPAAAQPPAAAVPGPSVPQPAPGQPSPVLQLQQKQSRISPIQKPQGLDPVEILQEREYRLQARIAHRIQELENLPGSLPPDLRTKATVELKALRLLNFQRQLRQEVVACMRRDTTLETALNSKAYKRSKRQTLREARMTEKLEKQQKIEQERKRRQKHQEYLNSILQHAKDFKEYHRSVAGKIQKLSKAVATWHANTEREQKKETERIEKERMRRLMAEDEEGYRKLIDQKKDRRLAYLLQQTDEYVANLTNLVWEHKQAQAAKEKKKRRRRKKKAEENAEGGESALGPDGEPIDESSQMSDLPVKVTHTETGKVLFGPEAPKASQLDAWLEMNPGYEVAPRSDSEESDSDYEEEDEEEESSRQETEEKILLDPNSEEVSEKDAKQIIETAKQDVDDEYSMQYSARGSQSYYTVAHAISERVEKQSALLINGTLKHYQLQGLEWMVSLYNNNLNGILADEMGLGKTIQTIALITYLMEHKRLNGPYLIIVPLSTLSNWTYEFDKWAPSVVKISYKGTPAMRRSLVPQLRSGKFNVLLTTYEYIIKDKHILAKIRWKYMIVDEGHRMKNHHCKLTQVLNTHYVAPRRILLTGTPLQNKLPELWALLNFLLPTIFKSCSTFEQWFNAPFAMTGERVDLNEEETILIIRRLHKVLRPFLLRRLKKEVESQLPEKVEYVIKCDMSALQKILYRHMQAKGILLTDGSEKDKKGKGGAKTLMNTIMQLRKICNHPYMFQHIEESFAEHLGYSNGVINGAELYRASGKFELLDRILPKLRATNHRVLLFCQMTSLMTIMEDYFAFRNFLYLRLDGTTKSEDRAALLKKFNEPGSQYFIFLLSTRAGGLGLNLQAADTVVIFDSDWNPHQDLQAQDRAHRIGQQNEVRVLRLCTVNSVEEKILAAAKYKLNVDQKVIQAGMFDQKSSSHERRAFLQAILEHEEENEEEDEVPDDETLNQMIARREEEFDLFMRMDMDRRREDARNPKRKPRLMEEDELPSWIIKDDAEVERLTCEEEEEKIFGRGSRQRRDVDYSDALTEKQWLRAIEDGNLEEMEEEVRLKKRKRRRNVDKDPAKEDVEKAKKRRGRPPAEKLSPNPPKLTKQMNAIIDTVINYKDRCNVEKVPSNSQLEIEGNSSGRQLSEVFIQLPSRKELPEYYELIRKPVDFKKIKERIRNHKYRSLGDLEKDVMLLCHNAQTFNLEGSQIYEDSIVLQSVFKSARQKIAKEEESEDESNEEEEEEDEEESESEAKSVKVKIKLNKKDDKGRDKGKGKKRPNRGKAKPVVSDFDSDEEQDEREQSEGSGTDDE

## Cc1ncsc1-c1ccc([C@H](C)NC(=O)[C@@H]2C[C@@H](O)CN2C(=O)[C@H](c2cc(-c3cnc(N4CCC(c5cc6nnc(-c7ccccc7O)cc6n5C)CC4)nc3)no2)C(C)C)cc1 [Compound 22, (2S,4R)-4-hydroxy-1-((S)-2-(3-(2-(4-(3-(2-hydroxyphenyl)-5-methyl-5H-pyrrolo[3,2-c]pyridazin-6-yl)piperidin-1-yl)pyrimidin-5-yl)isoxazol-5-yl)-3-methylbutanoyl)-N—((S)-1-(4-(4-methylthiazol-5-yl)phenyl)ethyl)pyrrolidine-2-carboxamide]
[1]
  BRM HiBit Degradation Maximum (%): B (“B” indicates maximum degradation ≥50%)
  DC50: > 100 nM
[2]; HeLa
  Dmax: < 50%

## Cc1ncsc1-c1ccc([C@H](C)NC(=O)[C@@H]2C[C@@H](O)CN2C(=O)[C@@H](c2cc(N3CCC(N4CC(c5cc6nnc(-c7ccccc7O)cc6[nH]5)C4)CC3)no2)C(C)C)cc1 [Compound 5, (2S,4R)-4-hydroxy-1-((R)-2-(3-(4-(3-(3-(2-hydroxyphenyl)-5H-pyrrolo[3,2-c]pyridazin-6-yl)azetidin-1-yl)piperidin-1-yl)isoxazol-5-yl)-3-methylbutanoyl)-N-((S)-1-(4-(4-methylthiazol-5-yl)phenyl)ethyl)pyrrolidine-2-carboxamide]
[1]
  BRM HiBit Degradation Maximum (%): A (“A” indicates maximum degradation ≥75%)
  DC50: < 10 nM
[2]; [3]
  Dmax: > 75%
  DC50: > 100 nM

## CC(C)[C@@H](C(=O)N1C[C@H](O)C[C@H]1C(=O)N[C@@H](C)c1ccc(F)cc1)c1cc(N2CC3(CC(c4cc5nnc(-c6ccccc6O)cc5n4C4CCC4)C3)C2)no1 [Compound 63, (2S,4R)-1-((R)-2-(3-(6-(5-cyclobutyl-3-(2-hydroxyphenyl)-5H-pyrrolo[3,2-c]pyridazin-6-yl)-2-azaspiro[3.3]heptan-2-yl)isoxazol-5-yl)-3-methylbutanoyl)-N-((S)-1-(4-fluorophenyl)ethyl)-4-hydroxypyrrolidine-2-carboxamide]
[1]
  BRM HiBit Degradation Maximum (%): A (“A” indicates maximum degradation ≥75%)
  DC50: > 10 nM
[2]; [3]
  Dmax: < 50%

## CCn1c(C2CCN(c3ncc(-c4cc([C@@H](C(=O)N5C[C@H](O)C[C@H]5C(=O)N[C@@H](C)c5ccc(-c6scnc6C)cc5)C(C)C)on4)cn3)CC2)cc2nnc(-c3ccccc3O)cc21 [Compound 24, (2S,4R)-1-[(2S)-2-[3-(2-{4-[5-ethyl-3-(2-hydroxyphenyl)pyrrolo[3,2-c]pyridazin-6-yl]piperidin-1-yl}pyrimidin-5-yl)-1,2-oxazol-5-yl]-3-methylbutanoyl]-4-hydroxy-N-[(1S)-1-[4-(4-methyl-1,3-thiazol-5-yl)phenyl]ethyl]pyrrolidine-2-carboxamide]
[1]
  BRM HiBit Degradation Maximum (%): B (“B” indicates maximum degradation ≥50%)
  DC50: > 10 nM
[2]; [3]
  Dmax: < 50%

## Cc1ncsc1-c1ccc([C@H](C)NC(=O)[C@@H]2C[C@@H](O)CN2C(=O)[C@@H](c2cc(OCCN3CCC(O)(c4cc5nnc(-c6ccccc6O)cc5n4C)CC3)no2)C(C)C)cc1 [Compound 30, (2S,4R)-4-hydroxy-1-[(2R)-2-[3-(2-{4-hydroxy-4-[3-(2-hydroxyphenyl)-5-methylpyrrolo[3,2-c]pyridazin-6-yl]piperidin-1-yl}ethoxy)-1,2-oxazol-5-yl]-3-methylbutanoyl]-N-[(1S)-1-[4-(4-methyl-1,3-thiazol-5-yl)phenyl]ethyl]pyrrolidine-2-carboxamide]
[1]
  BRM HiBit Degradation Maximum (%): A (“A” indicates maximum degradation ≥75%)
  DC50: > 10 nM
[2]; [3]
  Dmax: > 75%
  DC50: > 100 nM

## Cc1ncsc1-c1ccc([C@H](C)NC(=O)[C@@H]2C[C@@H](O)CN2C(=O)[C@@H](c2cc(N3CC4(CC(c5cc6nnc(-c7ccccc7O)cc6n5C56CC(C5)C6)C4)C3)no2)C(C)C)cc1 [Compound 65, (2S,4R)-1-((R)-2-(3-(6-(5-(bicyclo[1.1.1]pentan-1-yl)-3-(2-hydroxyphenyl)-5H-pyrrolo[3,2-c]pyridazin-6-yl)-2-azaspiro[3.3]heptan-2-yl)isoxazol-5-yl)-3-methylbutanoyl)-4-hydroxy-N-((S)-1-(4-(4-methylthiazol-5-yl)phenyl)ethyl)pyrrolidine-2-carboxamide]
[1]
  BRM HiBit Degradation Maximum (%): A (“A” indicates maximum degradation ≥75%)
  DC50: < 10 nM
[2]; [3]
  Dmax: < 50%

## Cc1ncsc1-c1ccc([C@H](C)NC(=O)[C@@H]2C[C@@H](O)CN2C(=O)[C@@H](c2cc(-c3cnc(N4CC[C@H](c5cc6nnc(-c7cc(F)cc(F)c7O)cc6n5C5CC5)C4)nc3)no2)C(C)C)cc1 [Compound 108, (2S,4R)-1-((R)-2-(3-(2-((S)-3-(5-cyclopropyl-3-(3,5-difluoro-2-hydroxyphenyl)-5H-pyrrolo[3,2-c]pyridazin-6-yl)pyrrolidin-1-yl)pyrimidin-5-yl)isoxazol-5-yl)-3-methylbutanoyl)-4-hydroxy-N-((S)-1-(4-(4-methylthiazol-5-yl)phenyl)ethyl)pyrrolidine-2-carboxamide]
[1]
  BRM HiBit Degradation Maximum (%): B (“B” indicates maximum degradation ≥50%)
  DC50: > 10 nM
[2]; [3]
  Dmax: < 50%

## Cc1ncsc1-c1ccc([C@H](C)NC(=O)[C@@H]2C[C@@H](O)CN2C(=O)[C@@H](C(C)C)n2cc(-c3cnc(N4CC[C@H](c5cc6nnc(-c7ccccc7O)cc6n5C5CC5)C4)nc3)nn2)cc1 [Compound 75, (2S,4R)-1-((R)-2-(4-(2-((S)-3-(5-cyclopropyl-3-(2-hydroxyphenyl)-5H-pyrrolo[3,2-c]pyridazin-6-yl)pyrrolidin-1-yl)pyrimidin-5-yl)-1H-1,2,3-triazol-1-yl)-3-methylbutanoyl)-4-hydroxy-N—((S)-1-(4-(4-methylthiazol-5-yl)phenyl)ethyl)pyrrolidine-2-carboxamide]
[1]
  BRM HiBit Degradation Maximum (%): A (“A” indicates maximum degradation ≥75%)
  DC50: > 10 nM
[2]; [3]
  Dmax: < 50%

## Cc1ncsc1-c1ccc([C@H](C)NC(=O)[C@@H]2C[C@@H](O)CN2C(=O)[C@@H](c2cc(-c3cnc(N4CCC(c5cc6nnc(-c7ccccc7O)cc6n5C5CCC5)CC4)nc3)no2)C(C)C)cc1 [Compound 46]
[1]
  BRM HiBit Degradation Maximum (%): C (“C” indicates maximum degradation <50%)
[2]; [3]
  Dmax: < 50%

## Cc1ncsc1-c1ccc([C@H](C)NC(=O)[C@@H]2C[C@@H](O)CN2C(=O)[C@@H](c2cc(OCCN3CC(c4cc5nnc(-c6ccccc6O)cc5n4C(F)F)C3)no2)C(C)C)cc1 [Compound 14, (2S,4R)-1-((R)-2-(3-(2-(3-(5-(difluoromethyl)-3-(2-hydroxyphenyl)-5H-pyrrolo[3,2-c]pyridazin-6-yl)azetidin-1-yl)ethoxy)isoxazol-5-yl)-3-methylbutanoyl)-4-hydroxy-N—((S)-1-(4-(4-methylthiazol-5-yl)phenyl)ethyl)pyrrolidine-2-carboxamide]
[1]
  BRM HiBit Degradation Maximum (%): A (“A” indicates maximum degradation ≥75%)
  DC50: > 10 nM
[2]; [3]
  Dmax: > 50%
  DC50: > 10 nM

## Cc1ncsc1-c1ccc([C@H](C)NC(=O)[C@@H]2C[C@@H](O)CN2C(=O)[C@@H](c2cc(N3CC[C@H](c4cc5nnc(-c6ccccc6O)cc5n4C4CC4)C3)no2)C(C)C)cc1 [Compound 99, (2S,4R)-1-((R)-2-(3-((S)-3-(5-cyclopropyl-3-(2-hydroxyphenyl)-5H-pyrrolo[3,2-c]pyridazin-6-yl)pyrrolidin-1-yl)isoxazol-5-yl)-3-methylbutanoyl)-4-hydroxy-N-((S)-1-(4-(4-methylthiazol-5-yl)phenyl)ethyl)pyrrolidine-2-carboxamide]
[1]
  BRM HiBit Degradation Maximum (%): A (“A” indicates maximum degradation ≥75%)
  DC50: < 10 nM
[2]; [3]
  Dmax: > 50%
  DC50: > 10 nM

## Cc1ncsc1-c1ccc([C@H](C)NC(=O)[C@@H]2C[C@@H](O)CN2C(=O)[C@H](C(C)C)n2cc(-c3cnc(N4CC[C@@H](c5cc6nnc(-c7ccccc7O)cc6n5C5CC5)C4)nc3)nn2)cc1 [Compound 71, (2S,4R)-1-((S)-2-(4-(2-((R)-3-(5-cyclopropyl-3-(2-hydroxyphenyl)-5H-pyrrolo[3,2-c]pyridazin-6-yl)pyrrolidin-1-yl)pyrimidin-5-yl)-1H-1,2,3-triazol-1-yl)-3-methylbutanoyl)-4-hydroxy-N-((S)-1-(4-(4-methylthiazol-5-yl)phenyl)ethyl)pyrrolidine-2-carboxamide]
[1]
  BRM HiBit Degradation Maximum (%): A (“A” indicates maximum degradation ≥75%)
  DC50: < 10 nM
[2]; [3]
  Dmax: > 75%
  DC50: < 10 nM
